Test results from patent publication US12421249B2, “Inhibitors of APOL1 and methods of using same” (Vertex Pharmaceuticals Incorporated, priority 2020, dated 2025).
Where two headings read alike, the source gives them in different places.

Experiments:
[1] = target: T1, APOL1 G1 (Homo sapiens, UniProt O14791, I384M/S342G); assay: Trypanosoma brucei brucei Lysis Assay Using APOL1 Recombinant Protein (AlamarBlue viability readout); type: cell-based; conditions: for IC50: IP50 = IC50 for cell proliferation, read-out: Trypanosome Assay IP50; for Emax: read-out: Trypanosome Assay Max Activity (%)
T1 sequence (O14791 28-398 S342G/I384M): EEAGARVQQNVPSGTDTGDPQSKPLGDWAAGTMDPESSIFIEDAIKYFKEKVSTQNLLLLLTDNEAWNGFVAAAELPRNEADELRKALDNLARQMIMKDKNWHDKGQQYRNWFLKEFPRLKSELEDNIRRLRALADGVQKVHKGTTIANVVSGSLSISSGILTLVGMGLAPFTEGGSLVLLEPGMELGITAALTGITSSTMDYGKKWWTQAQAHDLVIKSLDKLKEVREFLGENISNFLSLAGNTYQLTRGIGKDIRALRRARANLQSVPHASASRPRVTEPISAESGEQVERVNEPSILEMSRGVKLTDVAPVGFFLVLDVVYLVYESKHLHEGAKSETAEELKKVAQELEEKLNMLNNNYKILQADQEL
Summary of the method: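 Percent viability comes from AlamarBlue (resazurin→resorufin) fluorescence interpolated on a standard curve of known parasite numbers, with no-APOL1 wells as 100%. Parasites (Lister 427 bloodstream form, 120,000/well, serum-free assay medium) meet 0.05 μg/mL APOL1 (~EC90). Compounds span a 10-point series, 0.1% DMSO final.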

[2] = target: T2, APOL1 (Homo sapiens, UniProt O14791); assay: Multi-Tox Assay (MultiTox-Fluor Multiplex Cytotoxicity Assay in tet-inducible APOL1 T-REx-HEK293 cells; Table 46 does not say which APOL1 variant G0/G1/G2); type: cell-based; conditions: APOL1 variant not given; for IC50: IP50 = IC50 for cell proliferation
T2 sequence (O14791 1-398 S342G/I384M): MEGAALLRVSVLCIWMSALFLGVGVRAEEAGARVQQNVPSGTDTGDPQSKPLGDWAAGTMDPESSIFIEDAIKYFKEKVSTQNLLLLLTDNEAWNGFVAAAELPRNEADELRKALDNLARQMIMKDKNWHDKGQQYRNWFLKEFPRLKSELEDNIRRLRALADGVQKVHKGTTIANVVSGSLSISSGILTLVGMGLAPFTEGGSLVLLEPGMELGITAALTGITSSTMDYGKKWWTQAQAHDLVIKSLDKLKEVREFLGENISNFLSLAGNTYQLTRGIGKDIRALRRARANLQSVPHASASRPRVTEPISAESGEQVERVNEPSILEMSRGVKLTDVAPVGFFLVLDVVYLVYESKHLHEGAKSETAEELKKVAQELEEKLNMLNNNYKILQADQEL

CCc1cc2c(s1)C(C)COC21C[C@@H](c2cn(C)nn2)N[C@@H](C)C1 (stereo in doubt) [Compound 10]
IC50 ([1]; Trypanosome Assay): 50 to 500 nM
Emax ([1]; Trypanosome Assay): 101%
Multi-Tox Assay Max Activity (%) [2]: 99.7%
IC50 [2]: < 50 nM

CC1CC2(CC(c3cn(CC4CC4)nn3)N1)OCCc1cc(Cl)sc12 (stereo not shown) [Compound 122]
IC50 ([1]; Trypanosome Assay): 50 to 500 nM
Emax ([1]; Trypanosome Assay): 106%
IC50 [2]: < 50 nM

C[C@H]1C[C@@]2(C[C@@H](c3cc(-c4ccccn4)n[nH]3)N1)OCCc1cc(Cl)sc12 (racemic) [Compound 88]
IC50 ([1]; Trypanosome Assay): < 50 nM
Emax ([1]; Trypanosome Assay): 98%
IC90 [2]: < 50 nM
Multi-Tox Assay Max Activity (%) [2]: 99.3%
IC50 [2]: < 50 nM

CCc1nc([C@@H]2C[C@]3(C[C@H](C)N2)OCCc2cc(Cl)sc23)c[nH]1 (racemic) [Compound 128]
IC50 ([1]; Trypanosome Assay): 50 to 500 nM
Emax ([1]; Trypanosome Assay): 107%
Multi-Tox Assay Max Activity (%) [2]: 99.3%
IC50 [2]: 50 to 500 nM

Cc1cccnc1[C@@H]1C[C@]2(C[C@H](C)N1)OCCc1cc(Cl)sc12 (racemic) [Compound 167]
IC50 ([1]; Trypanosome Assay): > 500 nM
Emax ([1]; Trypanosome Assay): 73%
IC50 [2]: > 500 nM

C[C@@H]1CC2(C[C@H](C)N1)OCCc1cc(C3CC(F)(F)C3)sc12 (single isomer, unassigned) [Compound 198]
IC50 ([1]; Trypanosome Assay): 50 to 500 nM
IC50 [2]: 50 to 500 nM

Cc1cc([C@@H]2C[C@]3(C[C@H](C)N2)OCCc2cc(Cl)sc23)[nH]n1 (racemic) [Compound 73]
IC50 ([1]; Trypanosome Assay): < 50 nM
Emax ([1]; Trypanosome Assay): 110%
IC50 [2]: < 50 nM

COc1cccc([C@@H]2C[C@]3(C[C@H](C)N2)OCCc2cc(Cl)sc23)c1O (racemic) [Compound 166]
IC50 ([1]; Trypanosome Assay): > 500 nM
Emax ([1]; Trypanosome Assay): 57.5%
IC50 [2]: > 500 nM

C[C@H]1C[C@@]2(C[C@@H](c3cc(C4CCOCC4)[nH]n3)N1)OCCc1cc(Cl)sc12 (stereo in doubt) [Compound 114]
IC50 ([1]; Trypanosome Assay): 50 to 500 nM
Emax ([1]; Trypanosome Assay): 95%
Multi-Tox Assay Max Activity (%) [2]: 99.7%
IC50 [2]: < 50 nM

C[C@@H]1CC2(C[C@H](C)N1)OCCc1cc(Cl)sc12 (single isomer, unassigned) [Compound 204]
IC50 ([1]; Trypanosome Assay): 50 to 500 nM
Emax [1]: 112%
IC50 [2]: 50 to 500 nM

C[C@H]1C[C@@]2(C[C@@H](c3ccc(C(N)=O)cc3)N1)OCCc1cc(Cl)sc12 (racemic) [Compound 47]
IC50 ([1]; Trypanosome Assay): < 50 nM
IC50 [2]: < 50 nM

CC1CC2(CC(C3CC3)N1)OCCc1cc(Cl)sc12 (mixture of isomers) [Compound 217]
IC50 ([1]; Trypanosome Assay): < 50 nM
Emax ([1]; Trypanosome Assay): 110%
IC50 [2]: < 50 nM

C[C@H]1C[C@@]2(C[C@@H](c3ccc(=O)n(C)c3)N1)OCCc1cc(Cl)sc12 (racemic) [Compound 80]
IC50 ([1]; Trypanosome Assay): < 50 nM
IC50 [2]: < 50 nM

C[C@H]1C[C@@]2(C[C@@H](c3cc(C4CC4)no3)N1)OCCc1cc(Cl)sc12 (racemic) [Compound 87]
IC50 ([1]; Trypanosome Assay): < 50 nM
IC50 [2]: < 50 nM

CC1COC2(C[C@@H](c3cn(C)nn3)N[C@@H](C)C2)c2cc(Cl)sc21 (stereo in doubt) [Compound 13]
Trypanosome Assay Max Activity (%) ([1]; Trypanosome Assay): 100.0%
IC50 ([1]; Trypanosome Assay): < 50 nM
IC90 [2]: < 50 nM
Multi-Tox Assay Max Activity (%) [2]: 99.0%
IC50 [2]: < 50 nM

CCC1CC2(CC(c3cn(C)nn3)N1)OCCc1cc(Cl)sc12 (stereo not shown) [Compound 186, 2-chloro-2′-ethyl-6′-(1-methyltriazol-4-yl)spiro[4,5-dihydrothieno[2,3-c]pyran-7,4′-piperidine]]
IC50 ([1]; Trypanosome Assay): 50 to 500 nM
Emax ([1]; Trypanosome Assay): 104%
IC90 [2]: 50 to 500 nM
Multi-Tox Assay Max Activity (%) [2]: 99.3%
IC50 [2]: < 50 nM

C[C@H]1C[C@@]2(C[C@@H](c3cnn(C4CCOCC4)c3)N1)OCCc1cc(Cl)sc12 (racemic) [Compound 100]
IC50 ([1]; Trypanosome Assay): < 50 nM
Emax ([1]; Trypanosome Assay): 99%
IC50 [2]: < 50 nM

CC(=O)Nc1ccc([C@@H]2C[C@]3(C[C@H](C)N2)OCCc2cc(Cl)sc23)cc1 (racemic) [Compound 50]
IC50 ([1]; Trypanosome Assay): < 50 nM
Emax ([1]; Trypanosome Assay): 103%
Multi-Tox Assay Max Activity (%) [2]: 99.7%
IC50 [2]: < 50 nM

CC1CC2(CC(c3cnn(C)n3)N1)OCCc1cc(Cl)sc12 (stereo not shown) [Compound 38]
IC50 ([1]; Trypanosome Assay): < 50 nM
Emax ([1]; Trypanosome Assay): 112%
IC50 [2]: < 50 nM

Cc1ccc([C@@H]2C[C@]3(C[C@H](C)N2)OCCc2cc(Cl)sc23)nn1 (racemic) [Compound 58]
IC50 ([1]; Trypanosome Assay): < 50 nM
Emax ([1]; Trypanosome Assay): 100%
Multi-Tox Assay Max Activity (%) [2]: 99.7%
IC50 [2]: < 50 nM

Cc1nc([C@@H]2C[C@]3(C[C@H](C)N2)OCCc2cc(Cl)sc23)co1 (racemic) [Compound 104]
IC50 ([1]; Trypanosome Assay): 50 to 500 nM
Emax ([1]; Trypanosome Assay): 100%
Multi-Tox Assay Max Activity (%) [2]: 99.3%
IC50 [2]: < 50 nM

CC1CC2(CC(c3ccc4[nH]ncc4c3)N1)OCCc1cc(Cl)sc12 (stereo not shown) [Compound 35]
IC50 ([1]; Trypanosome Assay): < 50 nM
Emax ([1]; Trypanosome Assay): 111%
IC50 [2]: < 50 nM

C[C@H]1CC2(CC(c3cn(C)cn3)N1)OCC(O)c1cc(Cl)sc12 (stereo in doubt) [Compound 178]
IC50 ([1]; Trypanosome Assay): < 50 nM
Emax ([1]; Trypanosome Assay): 101%
IC50 [2]: < 50 nM

C[C@H]1C[C@@]2(C[C@@H](c3cnccc3O)N1)OCCc1cc(Cl)sc12 (racemic) [Compound 160]
IC50 ([1]; Trypanosome Assay): > 500 nM
Emax ([1]; Trypanosome Assay): 97.5%
IC50 [2]: > 500 nM

COC(=O)[C@@H]1C[C@]2(C[C@H](C)N1)OCCc1cc(Cl)sc12 [Compound 209, methyl (2′S,6′S,7S)-2-chloro-6′-methyl-spiro[4,5-dihydrothieno[2,3-c]pyran-7,4′-piperidine]-2′-carboxylate]
IC50 ([1]; Trypanosome Assay): 50 to 500 nM
Emax ([1]; Trypanosome Assay): 100%
IC50 [2]: > 500 nM

C[C@H]1C[C@@]2(C[C@@H](c3n[nH]c4ccccc34)N1)OCCc1cc(Cl)sc12 (racemic) [Compound 169]
IC50 ([1]; Trypanosome Assay): > 500 nM
Emax ([1]; Trypanosome Assay): 61%
IC50 [2]: > 500 nM

C[C@H]1C[C@@]2(C[C@@H](c3cccc(NS(C)(=O)=O)c3)N1)OCCc1cc(Cl)sc12 (racemic) [Compound 115]
IC50 ([1]; Trypanosome Assay): 50 to 500 nM
Emax ([1]; Trypanosome Assay): 100%
Multi-Tox Assay Max Activity (%) [2]: 99.3%
IC50 [2]: < 50 nM

C[C@H]1C[C@@]2(C[C@@H](c3cn(C)nn3)N1)OCC(F)(F)c1cc(Cl)sc12 [Compound 183, (2′S,6′S,7S)-2-chloro-4,4-difluoro-2′-methyl-6′-(1-methyltriazol-4-yl)spiro[5H-thieno[2,3-c]pyran-7,4′-piperidine]]
IC50 ([1]; Trypanosome Assay): 50 to 500 nM
Emax ([1]; Trypanosome Assay): 106%
IC50 [2]: < 50 nM

C[C@H]1C[C@@]2(C[C@@H](c3cn(C)nn3)N1)OC[C@@H](O)c1cc(C(F)(F)F)sc12 [Compound 181, (2S,4S,4′S,6S)-2-methyl-6-(1-methyl-1H-1,2,3-triazol-4-yl)-2′-(trifluoromethyl)-4′,5′-dihydrospiro[piperidine-4,7′-thieno[2,3-c]pyran]-4′-ol]
IC50 ([1]; Trypanosome Assay): < 50 nM
Emax ([1]; Trypanosome Assay): 102%
IC50 [2]: < 50 nM

C[C@H]1C[C@@]2(C[C@@H](c3ncnn3C)N1)OCCc1cc(Cl)sc12 (racemic) [Compound 171]
IC50 ([1]; Trypanosome Assay): > 500 nM
Emax ([1]; Trypanosome Assay): 14%
IC50 [2]: > 500 nM

Cc1nccc([C@@H]2C[C@]3(C[C@H](C)N2)OCCc2cc(Cl)sc23)n1 (racemic) [Compound 116]
IC50 ([1]; Trypanosome Assay): 50 to 500 nM
Emax ([1]; Trypanosome Assay): 101%
IC50 [2]: < 50 nM

CC(=O)Nc1ccc(C2CC3(CC(C)N2)OCCc2cc(Cl)sc23)cn1 (stereo not shown) [Compound 37]
IC50 ([1]; Trypanosome Assay): < 50 nM
Emax ([1]; Trypanosome Assay): 114%
IC50 [2]: < 50 nM

CC1CC2(CC(C)N1)OCCc1cc(Cl)sc12 (mixture of isomers) [Compound 194, 2-chloro-2′,6′-dimethyl-spiro[4,5-dihydrothieno[2,3-c]pyran-7,4′-piperidine]]
IC50 ([1]; Trypanosome Assay): 50 to 500 nM
Emax [1]: 117%
IC50 [2]: 50 to 500 nM

C[C@H]1C[C@@]2(C[C@@H](c3cnc(N(C)C)nc3)N1)OCCc1cc(Cl)sc12 (racemic) [Compound 75]
IC50 ([1]; Trypanosome Assay): < 50 nM
Emax ([1]; Trypanosome Assay): 105%
IC50 [2]: < 50 nM

C[C@H]1CC2(C[C@@H](c3cn(C)nn3)N1)OCC(C)(C)c1sc(C(F)(F)F)cc12 (stereo in doubt) [Compound 16]
IC50 ([1]; Trypanosome Assay): 50 to 500 nM
Emax ([1]; Trypanosome Assay): 99.5%
Multi-Tox Assay Max Activity (%) [2]: 100.0%
IC50 [2]: < 50 nM

C[C@H]1C[C@@]2(C[C@@H](c3c[nH]cn3)N1)OCCc1cc(Cl)sc12 (racemic) [Compound 85]
IC50 ([1]; Trypanosome Assay): < 50 nM
IC50 [2]: < 50 nM

Cc1nn(C)cc1[C@@H]1C[C@]2(C[C@H](C)N1)OCCc1cc(Cl)sc12 (racemic) [Compound 142]
IC50 ([1]; Trypanosome Assay): 50 to 500 nM
Emax ([1]; Trypanosome Assay): 83.7%
Multi-Tox Assay Max Activity (%) [2]: 99.0%
IC50 [2]: 50 to 500 nM

CCc1cc([C@@H]2C[C@]3(C[C@H](C)N2)OCCc2cc(Cl)sc23)on1 (stereo in doubt) [Compound 91]
IC50 ([1]; Trypanosome Assay): < 50 nM
Emax ([1]; Trypanosome Assay): 110%
IC50 [2]: < 50 nM
